From patent US9000159B2 (Glenmark Pharmaceuticals, S.A., priority 2009, dated 2015)
pIC50: −log10 of the molar value.

Molecular target: T1, Human TRPA1 (Homo sapiens, UniProt O75762)
T1 construct: expressed in transfected cells; host or cells: CHO cells
Assay: 45Calcium uptake assay: inhibition of AITC induced cellular uptake of radioactive calcium
Format: cell-based
Conditions: AITC (30 μM) induced 45Ca uptake, Human TRPA1 expressing CHO cells; for inhibition at 1 µM: 1.0 μM test compound, read-out: Percentage inhibition at 1.0 μM; for inhibition at 10 µM: 10.0 μM test compound, read-out: Percentage inhibition at 10.0 μM; for pIC50: read-out: Human IC50 value (range)
From the text: The illustrative examples of the present invention are screened for TRPA1 activity according to a modified procedure described in (a) Tóth, A. et al., Life Sciences, 2003, 73, 487-498. (b) McNamara C, R. et al., Proc. Natl. Acad. Sci. U.S.A., 2007, 104, 13525-13530. The screening of the compounds can be carried out by other methods and procedures known to persons skilled in the art.
Screening for TRPA1 Antagonist Using the ^45Calcium Uptake Assay
The inhibition of TRPA1 receptor activation was measured as inhibition of allyl isothiocyanate (AITC) induced cellular uptake of radioactive calcium. Test compounds were dissolved in DMSO to prepare 10 mM stock solution and then diluted using plain medium with 0.1% BSA and 1.8 mM CaCl2 to get desired concentration. Final concentration of DMSO in the reaction was 0.5% (v/v). Human TRPA1 expressing CHO cells were grown in F-12 DMEM medium with 10% FBS, 1% penicillin-streptomycin solution, 400 μg/ml of G-418. Cells were seeded 24 h prior to the assay in 96 well plates so as to get ˜50,000 cells per well on the day of experiment. Cells were treated with test compounds for 10 min followed by addition of AITC at a final concentration of 30 μM and 5 μCi/ml ^45Ca^+2 for 3 min. Cells were washed and lysed using buffer containing 1% Triton X-100, 0.1% deoxycholate and 0.1% SDS. Radioactivity in the lysate was measured in Packard Top count after addition of liquid scintillant. Concentration response curves were plotted as a % of maximal response obtained in the absence of test antagonist. IC50 value was calculated from concentration response curve by nonlinear regression analysis using GraphPad PRISM software.

T1 sequence (O75762 whole entry): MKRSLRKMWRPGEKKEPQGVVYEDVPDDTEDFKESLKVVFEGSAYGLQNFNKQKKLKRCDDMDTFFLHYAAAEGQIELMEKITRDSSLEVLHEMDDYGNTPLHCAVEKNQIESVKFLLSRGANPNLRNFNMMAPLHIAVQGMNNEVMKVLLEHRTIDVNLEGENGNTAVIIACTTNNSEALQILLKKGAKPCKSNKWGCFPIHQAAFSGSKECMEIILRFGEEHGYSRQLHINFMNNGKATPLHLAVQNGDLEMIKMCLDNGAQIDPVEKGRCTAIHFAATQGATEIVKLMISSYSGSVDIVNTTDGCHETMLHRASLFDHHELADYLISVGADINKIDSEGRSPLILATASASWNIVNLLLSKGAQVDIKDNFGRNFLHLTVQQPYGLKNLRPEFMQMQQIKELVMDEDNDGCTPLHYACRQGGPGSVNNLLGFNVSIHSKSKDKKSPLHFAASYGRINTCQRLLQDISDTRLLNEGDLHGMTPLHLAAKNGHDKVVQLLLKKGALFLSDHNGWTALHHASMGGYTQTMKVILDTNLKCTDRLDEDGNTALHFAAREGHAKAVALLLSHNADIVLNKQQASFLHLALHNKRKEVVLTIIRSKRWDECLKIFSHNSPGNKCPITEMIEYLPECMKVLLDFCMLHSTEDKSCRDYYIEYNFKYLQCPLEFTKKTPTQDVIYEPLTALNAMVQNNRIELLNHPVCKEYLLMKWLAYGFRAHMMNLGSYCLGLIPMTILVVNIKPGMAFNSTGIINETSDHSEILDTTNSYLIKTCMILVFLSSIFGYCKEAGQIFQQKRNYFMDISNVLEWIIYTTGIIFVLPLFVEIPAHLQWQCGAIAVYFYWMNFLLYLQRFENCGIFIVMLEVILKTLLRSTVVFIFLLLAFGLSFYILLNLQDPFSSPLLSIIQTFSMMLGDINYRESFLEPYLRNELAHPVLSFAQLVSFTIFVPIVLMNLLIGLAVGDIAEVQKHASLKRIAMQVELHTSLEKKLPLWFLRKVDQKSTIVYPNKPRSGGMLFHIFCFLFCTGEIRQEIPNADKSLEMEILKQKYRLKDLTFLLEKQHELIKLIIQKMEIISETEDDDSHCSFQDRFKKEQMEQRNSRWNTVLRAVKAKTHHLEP

Row | SMILES | inhibition at 1 µM | inhibition at 10 µM | pIC50
1 | Cn1c(=O)c2c(CC(=O)Nc3nc(-c4ccc(C(F)(F)F)c(F)c4)cs3)cn(C)c2n(C)c1=O [Example 41, N-{4-[3-Fluoro-4-(trifluoromethyl)phenyl]-1,3-thiazol-2-yl}-2-(1,3,7-trimethyl-2,4-dioxo-2,3,4,7-tetrahydro-1H-pyrrolo[2,3-d]pyrimidin-5-yl)acetamide] | 38% | 86.5% | –
2 | Cn1c(=O)c2c(cnn2CC(=O)Nc2nc(-c3ccc(OCC(C)(C)C)c(Cl)c3)cs2)n(C)c1=O [Example 70, N-{4-[3-Chloro-4-(2,2-dimethylpropoxy)phenyl]-1,3-thiazol-2-yl}-2-(4,6-dimethyl-5,7-dioxo-4,5,6,7-tetrahydro-1H-pyrazolo[4,3-d]pyrimidin-1-yl)acetamide] | 91.5% | 98.8% | > 7.30
3 | Cn1nc2c(c1CC(=O)Nc1nc(-c3ccc(OC(F)(F)F)c(F)c3)cs1)c(=O)n(C)c(=O)n2C [Example 59, N-{4-[3-Fluoro-4-(trifluoromethoxy)phenyl]-1,3-thiazol-2-yl}-2-(2,5,7-trimethyl-4,6-dioxo-4,5,6,7-tetrahydro-2H-pyrazolo[3,4-d]pyrimidin-3-yl)acetamide] | 97.6% | 99.3% | > 7.30
4 | Cn1c(=O)c2c(ccn2CC(=O)Nc2nc(-c3cc(Cl)c(OCC4CCC4)c(Cl)c3)cs2)n(C)c1=O [Example 19, 2-(1,3-Dimethyl-2,4-dioxo-1,2,3,4-tetrahydro-5H-pyrrolo[3,2-d]pyrimidin-5-yl)-N-{4-[4-(cyclobutylmethoxy)-3,5-dichlorophenyl]-1,3-thiazol-2-yl}acetamide] | 72.1% | 76.9% | –
5 | Cc1cc2c(c(=O)n(C)c(=O)n2C)n1CC(=O)Nc1nc(-c2cc(F)c(OCC(F)(F)F)c(Cl)c2)cs1 [Example 30] | 93.6% | 100% | > 7.30
6 | Cn1c(=O)c2c(cnn2CC(=O)Nc2nc(-c3ccc(OCC(C)(C)C)c(F)c3)cs2)n(C)c1=O [Example 69, N-{4-[4-(2,2-Dimethylpropoxy)-3-fluorophenyl]-1,3-thiazol-2-yl}-2-(4,6-dimethyl-5,7-dioxo-4,5,6,7-tetrahydro-1H-pyrazolo[4,3-d]pyrimidin-1-yl)acetamide] | 97.3% | 99.8% | > 7.30
7 | Cn1c(=O)c2c(ccn2CC(=O)Nc2nc(-c3ccc(C(F)(F)F)c(F)c3)cs2)n(C)c1=O [Example 3, 2-(1,3-Dimethyl-2,4-dioxo-1,2,3,4-tetrahydro-5H-pyrrolo[3,2-d]pyrimidin-5-yl)-N-{4-[3-fluoro-4-(trifluoromethyl)phenyl]-1,3-thiazol-2-yl}acetamide] | 94.4% | 98.8% | > 7.30
8 | CC(C)COc1c(F)cc(-c2csc(NC(=O)Cn3ccc4c3c(=O)n(C)c(=O)n4C)n2)cc1F [Example 6, 2-(1,3-Dimethyl-2,4-dioxo-1,2,3,4-tetrahydro-5H-pyrrolo[3,2-d]pyrimidin-5-yl)-N-{4-[4-(2-methylpropoxy)-3,5-difluorophenyl]-1,3-thiazol-2-yl}acetamide] | 42.4% | 52.8% | –
9 | Cn1c(=O)c2c(cnn2CC(=O)Nc2nc(-c3ccc(C(F)(F)F)c(F)c3)cs2)n(C)c1=O [Example 68, 2-(4,6-Dimethyl-5,7-dioxo-4,5,6,7-tetrahydro-1H-pyrazolo[4,3-d]pyrimidin-1-yl)-N-{4-[3-fluoro-4-(trifluoromethyl)phenyl]-1,3-thiazol-2-yl}acetamide] | 91.3% | 99.4% | < 7.00
10 | Cn1c(=O)c2c(ccn2CC(=O)Nc2nc(-c3ccc(Cl)c(Cl)c3Cl)cs2)n(C)c1=O [Example 5, 2-(1,3-Dimethyl-2,4-dioxo-1,2,3,4-tetrahydro-5H-pyrrolo[3,2-d]pyrimidin-5-yl)-N-[4-(2,3,4-trichlorophenyl)-1,3-thiazol-2-yl]acetamide] | 55.3% | 82.3% | –
11 | Cn1nc2c(c1CC(=O)Nc1nc(-c3cccc(OC(F)(F)F)c3)cs1)c(=O)n(C)c(=O)n2C [Example 49, N-{4-[3-(Trifluoromethoxy)phenyl]-1,3-thiazol-2-yl}-2-(2,5,7-trimethyl-4,6-dioxo-4,5,6,7-tetrahydro-2H-pyrazolo[3,4-d]pyrimidin-3-yl)acetamide] | 52.3% | 88.5% | –
12 | Cc1cc2c(c(=O)n(C)c(=O)n2C)n1CC(=O)Nc1nc(-c2ccc(OCC(C)(C)C)c(F)c2)cs1 [Example 31, N-{4-[4-(2,2-Dimethylpropoxy)-3-fluorophenyl]-1,3-thiazol-2-yl}-2-(1,3,6-trimethyl-2,4-dioxo-1,2,3,4-tetrahydro-5H-pyrrolo[3,2-d]pyrimidin-5-yl)acetamide] | 87.4% | 95.3% | 7.00 to 7.30
13 | Cn1nc2c(c1CC(=O)Nc1nc(-c3cccc(C(F)(F)F)c3)cs1)c(=O)n(C)c(=O)n2C [Example 48, N-{4-[3-(Trifluoromethyl)phenyl]-1,3-thiazol-2-yl}-2-(2,5,7-trimethyl-4,6-dioxo-4,5,6,7-tetrahydro-2H-pyrazolo[3,4-d]pyrimidin-3-yl)acetamide] | 92.8% | 97.5% | 7.00 to 7.30
14 | Cn1c(=O)c2c(ccn2CC(=O)Nc2nc(-c3cc(F)c(OCc4ccccc4C(F)(F)F)c(F)c3)cs2)n(C)c1=O [Example 20, 2-(1,3-Dimethyl-2,4-dioxo-1,2,3,4-tetrahydro-5H-pyrrolo[3,2-d]pyrimidin-5-yl)-N-{4-[3,5-difluoro-4-[2-(trifluoromethyl)benzyloxy]phenyl)-1,3-thiazol-2-yl}acetamide] | 22.6% | 67.7% | –
15 | Cn1nc2c(c1CC(=O)Nc1nc3cc(OC(F)(F)F)ccc3s1)c(=O)n(C)c(=O)n2C [Example 66, N-[5-(Trifluoromethoxy)-1,3-benzothiazol-2-yl]-2-(2,5,7-trimethyl-4,6-dioxo-4,5,6,7-tetrahydro-2H-pyrazolo[3,4-d]pyrimidin-3-yl)acetamide] | 45% | 71.5% | –
16 | Cc1cc2c(c(=O)n(C)c(=O)n2C)n1CC(=O)Nc1nc(-c2cc(Cl)c(OCC(C)(C)C)c(Cl)c2)cs1 [Example 29] | 95.6% | 97.1% | > 7.30
17 | Cn1c(=O)c2c(ccn2CC(=O)Nc2nc(-c3ccc(F)c(C(F)(F)F)c3)cs2)n(C)c1=O [Example 2, 2-(1,3-Dimethyl-2,4-dioxo-1,2,3,4-tetrahydro-5H-pyrrolo[3,2-d]pyrimidin-5-yl)-N-{4-[4-fluoro-3-(trifluoromethyl)phenyl]-1,3-thiazol-2-yl}acetamide] | 35.4% | 79.5% | –
18 | Cc1cc2c(c(=O)n(C)c(=O)n2C)n1CC(=O)Nc1nc(-c2cc(F)c(OCC3CCC3)c(F)c2)cs1 [Example 27, N-[4-(4-Cyclobutylmethoxy-3,5-difluorophenyl)-1,3-thiazol-2-yl]-2-(1,3,6-trimethyl-2,4-dioxo-1,2,3,4-tetrahydro-5H-pyrrolo[3,2-d]pyrimidin-5-yl)acetamide] | 87.6% | 99.2% | > 7.30
19 | Cc1cc2c(c(=O)n(C)c(=O)n2C)n1CC(=O)Nc1nc(-c2ccc(C(F)(F)F)c(F)c2)cs1 [Example 22, N-[4-(3-Fluoro-4-trifluoromethylphenyl)-1,3-thiazol-2-yl]-2-(1,3,6-trimethyl-2,4-dioxo-1,2,3,4-tetrahydro-5H-pyrrolo[3,2-d]pyrimidin-5-yl)acetamide] | 81.4% | 99.4% | > 7.30
20 | Cn1c(=O)c2c(ccn2CC(=O)Nc2nc(-c3cc(Cl)c(OCCC(F)(F)F)c(Cl)c3)cs2)n(C)c1=O [Example 14, N-{4-[3,5-Dichloro-4-(3,3,3-trifluoropropoxy)phenyl]-1,3-thiazol-2-yl}-2-(1,3-dimethyl-2,4-dioxo-1,2,3,4-tetrahydro-5H-pyrrolo[3,2-d]pyrimidin-5-yl)acetamide] | 92.5% | 92.5% | > 7.30
21 | CC(C)Cc1ccc(-c2csc(NC(=O)Cc3c4c(=O)n(C)c(=O)n(C)c4nn3C)n2)cc1 [Example 45, N-[4-(4-Isobutylphenyl)-1,3-thiazol-2-yl]-2-(2,5,7-trimethyl-4,6-dioxo-4,5,6,7-tetrahydro-2H-pyrazolo[3,4-d]pyrimidin-3-yl)acetamide] | 93.5% | 98.9% | 7.00 to 7.30
22 | Cn1c(=O)c2c(c(Br)cn2CC(=O)Nc2nc(-c3cc(F)c(OCC(C)(C)C)c(F)c3)cs2)n(C)c1=O [Example 36, 2-(7-Bromo-1,3-dimethyl-2,4-dioxo-1,2,3,4-tetrahydro-5H-pyrrolo[3,2-d]pyrimidin-5-yl)-N-{4-[3,5-difluoro-4-(2,2-dimethylpropoxy)phenyl]-1,3-thiazol-2-yl}acetamide] | 35.6% | 70.1% | –
